Assay results taken from patent US9695155B2, “Herbicidal substituted pyrimidinyloxy benzene compounds” (E. I. DU PONT DE NEMOURS AND COMPANY, priority 2013, dated 2017).

Assays:
rice = assay: Test B flooded paddy test; assay type: in vivo, Oryza sativa; settings: Flood, 250 g ai/ha; 0 to 100 scale where 0 is no effect and 100 is complete control
Method in brief: (§1)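 Plants at 2-leaf stage; pots flooded to 3 cm above soil and compound applied directly into paddy water, depth held throughout. After 13 to 15 days in greenhouse, visual rating versus controls on 0 (no effect) to 100 (complete control) scale.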

Italian ryegrass [1] = assay: Test A preemergence; assay type: in vivo, Lolium multiflorum; settings: for Plant response rating, Ryegrass, Italian: 0 to 100 scale where 0 is no effect and 100 is complete control
Method in brief: (§2)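 Visual 0–100 rating (100 = complete control) taken about 10 d post-treatment relative to untreated checks. Preemergence: directed soil spray on sown loam/sand pots. Postemergence: seedlings 2–10 cm, 1–2 leaf. Non-phytotoxic solvent formulation with surfactant.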

blackgrass = assay: Test A postemergence; assay type: in vivo, Alopecurus myosuroides
Method in brief: as §2

corn = assay: Test A postemergence; assay type: in vivo, Zea mays
Method in brief: as §2

sedge, umbrella = assay: Test B flooded paddy test; assay type: in vivo, Cyperus difformis; settings: Flood, 250 g ai/ha; 0 to 100 scale where 0 is no effect and 100 is complete control
Method in brief: as §1

ragweed [2] = assay: Test A preemergence; assay type: in vivo, Ambrosia elatior; settings: for Plant response rating, Ragweed: 0 to 100 scale where 0 is no effect and 100 is complete control
Method in brief: as §2

wheat = assay: Test A postemergence; assay type: in vivo, Triticum aestivum; settings: 0 to 100 scale, 0 no effect, 100 complete control
Method in brief: as §2

barnyardgrass [3] = assay: Test B flooded paddy test; assay type: in vivo, Echinochloa crus-galli; settings: Flood, 250 g ai/ha; 0 to 100 scale where 0 is no effect and 100 is complete control
Method in brief: as §1

kochia [4] = assay: Test A postemergence; assay type: in vivo, Kochia scoparia
Method in brief: as §2

barnyardgrass [5] = assay: Test A postemergence; assay type: in vivo, Echinochloa crus-galli
Method in brief: as §2

Heteranthera limosa = assay: Test B flooded paddy test; assay type: in vivo; settings: Flood, 250 g ai/ha; 0 to 100 scale where 0 is no effect and 100 is complete control
Method in brief: as §1

Italian ryegrass [6] = assay: Test A postemergence; assay type: in vivo, Lolium multiflorum; settings: 0 to 100 scale, 0 no effect, 100 complete control
Method in brief: as §2

giant foxtail [7] = assay: Test A preemergence; assay type: in vivo, Setaria faberii; settings: for Plant response rating, Foxtail, Giant: 0 to 100 scale where 0 is no effect and 100 is complete control
Method in brief: as §2

barnyardgrass [8] = assay: Test A preemergence; assay type: in vivo, Echinochloa crus-galli; settings: for Plant response rating, Barnyardgrass: 0 to 100 scale where 0 is no effect and 100 is complete control
Method in brief: as §2

galium = assay: Test A postemergence; assay type: in vivo, Galium aparine
Method in brief: as §2

kochia [9] = assay: Test A preemergence; assay type: in vivo, Kochia scoparia; settings: for Plant response rating, Kochia: 0 to 100 scale where 0 is no effect and 100 is complete control
Method in brief: as §2

ragweed [10] = assay: Test A postemergence; assay type: in vivo, Ambrosia elatior; settings: 0 to 100 scale, 0 no effect, 100 complete control
Method in brief: as §2

pigweed [11] = assay: Test A postemergence; assay type: in vivo, Amaranthus retroflexus; settings: 0 to 100 scale, 0 no effect, 100 complete control
Method in brief: as §2

giant foxtail [12] = assay: Test A postemergence; assay type: in vivo, Setaria faberii
Method in brief: as §2

pigweed [13] = assay: Test A preemergence; assay type: in vivo, Amaranthus retroflexus; settings: for Plant response rating, Pigweed: 0 to 100 scale where 0 is no effect and 100 is complete control
Method in brief: as §2

[14] = 31 g ai/ha, visual, approximately 10 days
[15] = 31 g ai/ha, 0 to 100 scale, 0 no effect, 100 complete control
[16] = 125 g ai/ha, 0 to 100 scale, 0 no effect, 100 complete control
[17] = 125 g ai/ha, 0 to 100 scale where 0 is no effect and 100 is complete control

NC(=O)c1cccc(Oc2ncc(Cl)cn2)c1-n1cc(C(F)(F)F)cn1 [Compound 278]
Plant response rating, Rice (rice): 0 | Plant response rating, Ryegrass, Italian (Italian ryegrass [1]; [14]): 0 | Ryegrass, Italian plant response rating (0 to 100 scale) (Italian ryegrass [1]; 125 g ai/ha): 0 | Plant response rating, Blackgrass (blackgrass; [15]): 0 | Plant response rating, Blackgrass (blackgrass; [16]): 0 | Plant response rating, Corn (corn; [15]): 0 | Plant response rating, Corn (corn; [16]): 0 | Plant response rating, Sedge, Umbrella (sedge, umbrella): 0 | Plant response rating, Ragweed (ragweed [2]; [14]): 0 | Ragweed plant response rating (0 to 100 scale) (ragweed [2]; 125 g ai/ha): 0 | Plant response rating, Wheat (wheat; 31 g ai/ha): 0 | Plant response rating, Wheat (wheat; 125 g ai/ha): 0 | Plant response rating, Barnyardgrass (barnyardgrass [3]): 0 | Plant response rating, Kochia (kochia [4]; [15]): 0 | Plant response rating, Kochia (kochia [4]; [16]): 0 | Plant response rating, Barnyardgrass (barnyardgrass [5]; [15]): 0 | Plant response rating, Barnyardgrass (barnyardgrass [5]; [16]): 0 | Plant response rating, Ducksalad (Heteranthera limosa): 0 | Plant response rating, Ryegrass, Italian (Italian ryegrass [6]; 31 g ai/ha): 0 | Plant response rating, Ryegrass, Italian (Italian ryegrass [6]; 125 g ai/ha): 0 | Plant response rating, Foxtail, Giant (giant foxtail [7]; [14]): 0 | Foxtail, Giant plant response rating (0 to 100 scale) (giant foxtail [7]; 125 g ai/ha): 0 | Plant response rating, Barnyardgrass (barnyardgrass [8]; [14]): 0 | Barnyardgrass plant response rating (0 to 100 scale, 0 is no effect, 100 is complete control) (barnyardgrass [8]; 125 g ai/ha): 0 | Plant response rating, Galium (galium; [15]): 0 | Plant response rating, Galium (galium; [16]): 10 | Plant response rating, Kochia (kochia [9]; [14]): 0 | Kochia plant response rating (0 to 100 scale) (kochia [9]; 125 g ai/ha): 0 | Plant response rating, Ragweed (ragweed [10]; 31 g ai/ha): 0 | Plant response rating, Ragweed (ragweed [10]; 125 g ai/ha): 10 | Plant response rating, Pigweed (pigweed [11]; 31 g ai/ha): 0 | Plant response rating, Pigweed (pigweed [11]; 125 g ai/ha): 10 | Plant response rating, Foxtail, Giant (giant foxtail [12]; [15]): 0 | Plant response rating, Foxtail, Giant (giant foxtail [12]; [16]): 0 | Plant response rating, Pigweed (pigweed [13]; [14]): 0 | Pigweed plant response rating (0 to 100 scale) (pigweed [13]; 125 g ai/ha): 10

CC(C)Oc1cnn(-c2c(Cl)cccc2Oc2ncc(Cl)cn2)c1 [Compound 103]
Plant response rating, Rice (rice): 0 | Ryegrass, Italian plant response rating (0 to 100 scale) (Italian ryegrass [1]; 31 g ai/ha): 0 | Plant response rating, Ryegrass, Italian (Italian ryegrass [1]; 125 g ai/ha): 0 | Plant response rating, Blackgrass (blackgrass; [15]): 0 | Plant response rating, Blackgrass (blackgrass; [17]): 0 | Plant response rating, Corn (corn; [15]): 0 | Plant response rating, Corn (corn; [17]): 0 | Plant response rating, Sedge, Umbrella (sedge, umbrella): 0 | Ragweed plant response rating (0 to 100 scale) (ragweed [2]; 31 g ai/ha): 0 | Plant response rating, Ragweed (ragweed [2]; 125 g ai/ha): 0 | Plant response rating, Wheat (wheat; 31 g ai/ha): 0 | Plant response rating, Barnyardgrass (barnyardgrass [3]): 0 | Plant response rating, Kochia (kochia [4]; [15]): 0 | Plant response rating, Kochia (kochia [4]; [17]): 0 | Plant response rating, Barnyardgrass (barnyardgrass [5]; [15]): 0 | Plant response rating, Barnyardgrass (barnyardgrass [5]; [17]): 0 | Plant response rating, Ducksalad (Heteranthera limosa): 0 | Plant response rating, Ryegrass, Italian (Italian ryegrass [6]; 31 g ai/ha): 0 | Foxtail, Giant plant response rating (0 to 100 scale) (giant foxtail [7]; 31 g ai/ha): 0 | Plant response rating, Foxtail, Giant (giant foxtail [7]; 125 g ai/ha): 0 | Barnyardgrass plant response rating (0 to 100 scale) (barnyardgrass [8]; 31 g ai/ha): 0 | Plant response rating, Barnyardgrass (barnyardgrass [8]; 125 g ai/ha): 0 | Plant response rating, Galium (galium; [15]): 0 | Plant response rating, Galium (galium; [17]): 0 | Kochia plant response rating (0 to 100 scale) (kochia [9]; 31 g ai/ha): 0 | Plant response rating, Kochia (kochia [9]; 125 g ai/ha): 0 | Plant response rating, Ragweed (ragweed [10]; 31 g ai/ha): 0 | Plant response rating, Pigweed (pigweed [11]; 31 g ai/ha): 0 | Plant response rating, Foxtail, Giant (giant foxtail [12]; [15]): 0 | Plant response rating, Foxtail, Giant (giant foxtail [12]; [17]): 0 | Pigweed plant response rating (0 to 100 scale) (pigweed [13]; 31 g ai/ha): 0 | Plant response rating, Pigweed (pigweed [13]; 125 g ai/ha): 0
